Patent publication US20050031598A1, “Engineering three-dimensional tissue structures using differentiating embryonic stem cells” (priority 2002, published 2005)

How the values were obtained:
Assay type in all cases: cell-based, human
[1] = tested on: differentiating hES cells (EB day 8); assay: Histochemical and immunohistochemical staining of hES cell constructs on PLLA/PLGA scaffolds; settings: scaffold constructs, two weeks; for alpha feto protein (AFP) and albumin staining: in comparison to the control
Procedure: (§1) For seeding in matrigel, 8-9 days-old EBs were trypsinized, and 0.8×10^6 cells were mixed in 25 μL of a 50% (vol/vol) media and matrigel (growth factor-reduced, BD Biosciences, Bedford, Mass.). EB media was supplemented with the following growth factors: TGF-β1 (2 ng/mL), activin-A (20 ng/mL), and IGF-I (10 ng/mL), (R&D Systems, Minneapolis, Minn.), and RA (300 ng/ml) (Sigma). The mixture was solidified in a 6-well Petri dish at 37° C. and then detached from the dish with sterile blades. 4 mL of each respective EB media was added. For seeding on scaffolds, 0.8×10^6 cells were seeded into each scaffold using 25 μL of a mixture containing 50% (vol/vol) of Growth Factor-Reduced Matrigel and the respective EB media. After seeding the cells, scaffolds were suspended in 6-well petri dishes in their respective media. For some experiments, scaffolds were soaked in 50 μg/mL of fibronectin (Sigma) for 1 hour and washed in PBS prior to direct cell seeding (without matrigel) in 25 μL of EB media.
(§2) Tissue constructs were fixed for 6 hours in 10% neutral buffered formalin, routinely processed, and embedded in paraffin. 5-μm thick transverse sections were placed on silanized slides for immunohistochemistry or staining with hematoxylin and eosin (H & E), trichrome, or Safranin O. Immunohistochemical staining was carried out using the Biocare Medical Universal HRP-DAB kit (Biocare Medical, Walnut Creek, Calif.) according to the manufacturer's instructions, with prior heat-treatment at 90° C. for 20 minutes in ReVeal buffer (Biocare Medical) for epitope recovery. The primary antibodies were mouse anti-human: desmin (1:150), alpha feto protein (1:2500), cytokeratin 7 (1:25), CD31 (1:20), albumin (1:100), vimentin (1:50), S100 (1:100) (all from Dako), anti-human βIII-tubulin (Sigma, 1:500), nestin (Transduction Laboratories, San Diego, Calif., 1:1000), CD34 (Labvision, Fremont, Calif., 1:20), SSEA4 (Hybridoma Bank, University of Iowa, Ames, 1:4), and Tra 1-60 (a gift from Peter Andrews, University of Sheffield, Sheffield, U.K., 1:10). Human and mouse tissues (Daks) were used as controls to ensure antibody specificity (FIG. 1). For proliferation studies, culture medium was incubated with […] of 5′-bromo-2′-deoxyuridine (BrdUrd) (Sigma) for 3 hours before fixation. Tissue sections were stained using mouse anti-BrdUrd antibodies (1:1000).

[2] = tested on: differentiating hES cells (EBs day 8); assay: Differentiation of hES cells in matrigel alone; settings: for shape of cell-matrigel structure: two weeks in suspension
Procedure: as §1, §2

[3] = tested on: differentiating hES cells (EB day 8); assay: RT-PCR gene expression analysis of hES cell constructs on PLLA/PLGA scaffolds; settings: scaffold constructs, two weeks
Procedure: as §1
Total RNA was isolated by an RNEasy Mini Kit (Qiagen, Chatsworth, Calif.). […] For some gels including RNA amplified using a GADPH primer, semi-quantitative analysis was performed by measuring the mean pixel intensities of each band and normalizing the measured intensity to the mean pixel intensity of the GADPH band.

[4] = tested on: differentiating hES cells (EB day 8); assay: Lumen diameters of tubulocystic structures lined by cytokeratin-positive epithelium in hES cell-scaffold constructs; settings: scaffold constructs grown two weeks, IGF-I 10 ng/mL, mean ±SD; for percentage of lumens >40 μm of total number of lumens (tubulocystic structures): RA 300 ng/ml, control 65%±4
Procedure: as §1
(§3) Tissue constructs were fixed for 6 hours in 10% neutral buffered formalin, routinely processed, and embedded in paraffin. 5-μm thick transverse sections were placed on silanized slides for immunohistochemistry or staining with hematoxylin and eosin (H & E), trichrome, or Safranin O. Immunohistochemical staining was carried out using the Biocare Medical Universal HRP-DAB kit (Biocare Medical, Walnut Creek, Calif.) according to the manufacturer's instructions, with prior heat-treatment at 90° C. for 20 minutes in ReVeal buffer (Biocare Medical) for epitope recovery. […]
Constructs grown for two weeks in control medium or in the presence of IGF or RA were processed and stained with anti-cytokeratin antibody as described above. Tubulocystic structures were counted and lumen diameters measured and grouped (large>200 μm, medium (Med)>40 μm, small<[…], closed and multilayered lumens). The results, the mean values (±SD) of samples obtained in two different experiments performed in duplicate, were recorded as percentages of lumens in each group from total number of lumens in each sample.

hEBs (day 8) = assay: Staining of hEBs incubated with growth factors; settings: EBs conditioned with growth factor
Procedure: FIG. 4 includes light micrographs of 5-μm-thick sections taken from hEBs (day 8), incubated for additional 2 weeks with control medium (CON) or medium supplemented with retinoic acid (RA), or insulin-like growth factor (IGF), and stained with antibodies against human cytokeratin, α-feto-protein, and nestin (scale bars=200 μm.)
hES cells (H9 clone) were grown on mouse embryonic fibroblasts (Cell Essential, Boston, Mass.) in KnockOut Medium (Gibco-BRL, Gaithersburg, Md.), a modified version of Dulbeco's modified Eagle's medium optimized for ES cells, as described^5. To induce formation of EBs, hES cell colonies were dissociated with 1 mg/ml collagenase type IV and suspended in differentiation media without LIF and bFGF in Petri dishes^5.
as §3

Compound	Safranin-O staining for glycosaminoglycans (cartilage extracellular matrix) [1]	alpha feto protein (AFP) and albumin staining [1]	AFP expression/staining ([2]; two weeks)	cellular viability ([2]; two weeks)	epithelial-lined tubular or cystic structures (histology) ([2]; two weeks)	shape of cell-matrigel structure [2]	expression of pancreatic gene PDX-1 ([3]; versus other growth factors)	increase in total percentage of cytokeratin-positive areas within the tissue ([1]; versus control medium, P<0.01) [fold]	percentage of lumens >40 μm of total number of lumens (tubulocystic structures) [4]	percentage of lumens >200 μm of total number of lumens (tubulocystic structures) [4]	safranin-O staining (hEBs (day 8))	collagen formation (trichrome staining) [1]	Safranin-O staining of cartilage-derived GAG ([2]; two weeks)	cartilage matrix protein (CMP) expression ([3]; compared to the other samples)
activin-A	did not induce formation of Safranin O-positive matrix	high levels of alpha feto protein (AFP) and albumin throughout the sample	No AFP expression was observed	least cellular viability	did not contain any such structures	small, condensed spheres	higher levels							
CC1=C(/C=C/C(C)=C/C=C/C(C)=C/C(=O)O)C(C)(C)CCC1 [RA, retinoic acid, reference compound]								~4	25%±12					
IGF: insulin growth factor IGF-I, 10 ng/mL (R&D Systems)	did not induce formation of Safranin O-positive matrix	high levels of AFP and albumin in more defined areas	some AFP staining could be observed		occasional epithelial-lined tubular or cystic structures	larger and less condensed			84%±6	10%±3				
TGF-β: transforming growth factor beta, TGF-β1, 2 ng/mL (R&D Systems)	high levels of Safranin-O staining				did not contain any such structures						no safranin-O staining was observed	induced mature collagen formation	No Safanin-O staining	higher levels
